“And” between values parts separate entries of the source, which are not always exact repeats. Identical values can stand only once. Like-named read-outs stand apart in the source and are kept apart here.
Tests used:
C57 mice = conditions: mouse, in vivo
STZ-diabetic rats [1] = test: STZ-rat model, cold allodynia response; format: in vivo
Method: (§1) The compound of Example 1 is also tested in an STZ-rat model of neuropathic pain. Briefly, adult female rats are made diabetic by treatment with streptozotocin (STZ), an alkylating neoplastic agent which is particularly toxic to the insulin-producing beta cells of the pancreas. The resulting type-I diabetes in the rats leads to the development of diabetic neuropathy over a 3 to 6-week period. […] Once diabetic neuropathy has been induced, the rats may be treated to determine the analgesic effect of compounds.
Paw cold response threshold is a clinical assessment of cold pain perception. A rigid filament with a thermoelectric cooling system is used to stimulate the plantar surface of the hind paw for 5 seconds. The stimulus is repeated ten times at 2 to 5-minute intervals. The number of paw withdrawal responses is recorded and converted to a response frequent figure (%). This procedure is repeated at a variety of temperatures. […] At a stimulus temperature of 20° C. or 15° C., the response frequency is found to be substantially the same between STZ-treated rats and control rats (from about 10-20% response). In contrast, at a stimulus temperature of 10° C. or below, there is a substantial divergence of frequency response. In control rats, a stimulus temperature of 10° C. results in about 10% response frequency, while at 5° C., this increases to about 40% response frequency. In contrast, STZ-treated rats show a response frequency of about 60% at 10° C., and about 80% at 5° C. […] A stable cold allodynia response is observed 4-12 weeks after induction of diabetes.
The cold allodynia response test is performed at 0 hours, 1 hour, 2 hours, 4 hours and 6 hours, as described above, using a 10° C. stimulus temperature. The injection vehicle is pure polyethylene glycol-400 (PEG400).

STZ-diabetic rats [2] = test: STZ-rat model, tactile stimuli (von Frey filaments); format: in vivo
Method: as §1
Paw tactile response threshold is a clinical assessment of allodynia to light touch. It can be measured using manual von Frey filaments (as described in Otto et al., Pain, 101:187-92 (2003). A series of von Frey filaments with logarithmically increasing stiffness are used, and the rats' response to each filament is observed. The results are used to calculate a 50%-withdrawal threshold (an amount of stiffness in the filament resulting in a 50% probability of withdrawal of the rat's paw).
This test is performed using the von Frey filaments as described above.

ZFD rats = test: ZFD rat model, electronic von Frey (paw pressure); format: in vivo; set-up: unit not given here
Method: Forty (40) adult, male […] rats weighing 225-275 g at the start of the study are used in these experiments, including ten (10) lean, controls and thirty (30) ZFD rats. Animals are maintained in the vivarium at a controlled room temperature between 65 to 85° F. and a relative humidity between 30-70% under illumination by fluorescent lighting on a daily 12-hour light/dark cycle. All animals are maintained 2 per cage with free access to dry food and water.
Paw pressure response threshold: This test applies greater force to the plantar hind paw than manual von Frey filaments and may be equated to pressure-induced pain such as that described by diabetic subjects upon standing and walking. Hyperalgesia to this measure develops over several weeks in ZFD rats such that this test can give an assessment of hyperalgesia and drug efficacy that differs from the allodynia measured by manual von Frey filaments. The method is described in detail by Lee-Kubil, Mixcoati-Zecuatl, Jolivalt, & Calcutt, Animal Models of Diabetes-Induced Neuropathic Pain, CURRENT TOPICS IN BEHAVIORAL NEUROSCIENCES 20: 147-170 (2014).
Dosing procedures. Zucker Fatty Diabetic rats are found to develop hyperglycemia over 6-8 weeks. […] Upon confirmation of the presence of painful neuropathy, rats are tested for three measures of hyperalgesia: cold allodynia threshold, tactile hyperalgesia (von Frey filaments), and pressure responses measured by a mechanical von Frey device. All rats are tested in all three assays and all rats receive each of four (4) pre-treatments administered subcutaneously (s.c.) in a vehicle of 10% Trappsol in water. All rats receive treatments in the same order, as follows: vehicle, 1 mg/kg Compound of Ex. 1, 3 mg/kg Compound of Ex. 1, and 10 mg/kg Compound of Ex. 1. Rats receive pre-treatments 30 minutes prior to the start of testing. Hyperalgesia/allodynia measures are recorded from each rat at baseline (0 time), then 1, 2, 3, 4, and 6 h after treatment.
After the completion of testing of all rats at all dose/conditions for each assay (cold, tactile, and pressure responses) rats are out-fitted with cannulas for intrathecal (i.t.) application of vehicle or Compound of Ex. 1 (1, 3 or 10 μg) directly to spinal cord. All rats are then re-tested in each of the tree assays at each of the 4 pretreatment conditions/doses.

With O=C1CN2c3c(cccc3[C@@H]3CN(CCCOc4ccc(F)cc4)CC[C@@H]32)N1 [Example 1, (6bR,10aS)-8-(3-(4-fluorophenoxy)propyl)-6b,7,8,9,10,10a-hexahydro-1H-pyrido[3′,4′:4,5]pyrrolo[1,2,3-de]quinoxalin-2(3H)-one] the “Mean Behavior Rating (0-4)” value (C57 mice; po, 3 mg/kg) was 0.9 and 0.8 and 1.5, the “Mean Behavior Rating (0-4)” value (C57 mice; sc, 1 mg/kg) was 1.0 and 1.9 and 1.1 and the cold response frequency (STZ-diabetic rats [1]; 1 mg/kg s.c., 1 hour) was roughly 35%. The cold response frequency (STZ-diabetic rats [1]; 1 mg/kg s.c., 4 hours) was “about 70%”, the cold response frequency (STZ-diabetic rats [1]; 1 mg/kg s.c., 6 hours) was “about 75%” and the cold response frequency (STZ-diabetic rats [1]; 3 mg/kg s.c., 1 hour) was “about 10%”. For the same compound, the cold response frequency (STZ-diabetic rats [1]; 3 mg/kg s.c., 4 hours) was “about 65%”, the cold response frequency (STZ-diabetic rats [1]; 3 mg/kg s.c., 6 hours) was 75% and the cold response frequency (STZ-diabetic rats [1]; 10 mg/kg s.c., 1 hour) was “about 15%”. For the same compound, the cold response frequency (STZ-diabetic rats [1]; 10 mg/kg s.c., 2 hours) was “about 10%”, the cold response frequency (STZ-diabetic rats [1]; 10 mg/kg s.c., 4 hours) was “about 20%” and the cold response frequency (STZ-diabetic rats [1]; 10 mg/kg s.c., 6 hours) was “about 40%”. For the same compound, the 50% withdrawal threshold (STZ-diabetic rats [2]; STZ-diabetic rats, 1 mg/kg s.c., 4 hours (peak)) was “about 4 g”, the 50% withdrawal threshold (STZ-diabetic rats [2]; STZ-diabetic rats, 1 mg/kg s.c., 6 hours) was “about 3 g” and the 50% withdrawal threshold (STZ-diabetic rats [2]; STZ-diabetic rats, 3 mg/kg s.c., 1 hours) was “about 6 g”. The 50% withdrawal threshold (STZ-diabetic rats [2]; STZ-diabetic rats, 3 mg/kg s.c., 2 hours (peak)) was roughly 8 g, the 50% withdrawal threshold (STZ-diabetic rats [2]; STZ-diabetic rats, 3 mg/kg s.c., 4 hours) was “about 3 g” and the 50% withdrawal threshold (STZ-diabetic rats [2]; STZ-diabetic rats, 10 mg/kg s.c., 1 hour) was “about 9 g”. The 50% withdrawal threshold (STZ-diabetic rats [2]; STZ-diabetic rats, 10 mg/kg s.c., 2 hours (peak)) was “about 10 g”, the 50% withdrawal threshold (STZ-diabetic rats [2]; STZ-diabetic rats, 10 mg/kg s.c., 6 hours) was “about 3 g” and the 50% withdrawal threshold (STZ-diabetic rats [2]; rat, in vivo, sc, 10 mg/kg) was “about 7 g”. The “Electronic von Frey (paw pressure response)” value (from here on “Electronic von Frey”) (ZFD rats; Control rats, 10 μg i.t., 0 hr) was 63.68, the “Electronic von Frey” value (ZFD rats; Control rats, 10 μg i.t., 1 hr) was 60.91 and the “Electronic von Frey” value (ZFD rats; Control rats, 10 μg i.t., 2 hr) was 62.10. The “Electronic von Frey” value (ZFD rats; Control rats, 10 μg i.t., 4 hr) was 59.56, the “Electronic von Frey” value (ZFD rats; Control rats, 10 mg/kg s.c., 0 hr) was 58.64 and the “Electronic von Frey” value (ZFD rats; Control rats, 10 mg/kg s.c., 1 hr) was 55.73. The “Electronic von Frey” value (ZFD rats; Control rats, 10 mg/kg s.c., 2 hr) was 60.74, the “Electronic von Frey” value (ZFD rats; Control rats, 10 mg/kg s.c., 4 hr) was 62.89 and the “Electronic von Frey” value (ZFD rats; ZFD rats, 1 μg i.t., 0 hr) was 24.76. For the same compound, the “Electronic von Frey” value (ZFD rats; ZFD rats, 1 μg i.t., 1 hr) was 34.77, the “Electronic von Frey” value (ZFD rats; ZFD rats, 1 μg i.t., 2 hr) was 30.09 and the “Electronic von Frey” value (ZFD rats; ZFD rats, 1 μg i.t., 4 hr) was 28.19. The “Electronic von Frey” value (ZFD rats; ZFD rats, 3 μg i.t., 0 hr) was 33.23, the “Electronic von Frey” value (ZFD rats; ZFD rats, 3 μg i.t., 1 hr) was 53.94 and the “Electronic von Frey” value (ZFD rats; ZFD rats, 3 μg i.t., 2 hr) was 50.17. For the same compound, the “Electronic von Frey” value (ZFD rats; ZFD rats, 3 μg i.t., 4 hr) was 39.95, the “Electronic von Frey” value (ZFD rats; ZFD rats, 10 μg i.t., 0 hr) was 24.68 and the “Electronic von Frey” value (ZFD rats; ZFD rats, 10 μg i.t., 1 hr) was 46.37. The “Electronic von Frey” value (ZFD rats; ZFD rats, 10 μg i.t., 2 hr) was 45.01, the “Electronic von Frey” value (ZFD rats; ZFD rats, 10 μg i.t., 4 hr) was 32.33 and the “Electronic von Frey” value (ZFD rats; ZFD rats, 1 mg/kg s.c., 0 hr) was 28.36. The “Electronic von Frey” value (ZFD rats; ZFD rats, 1 mg/kg s.c., 1 hr) was 32.99, the “Electronic von Frey” value (ZFD rats; ZFD rats, 1 mg/kg s.c., 2 hr) was 27.35 and the “Electronic von Frey” value (ZFD rats; ZFD rats, 1 mg/kg s.c., 4 hr) was 24.67. The “Electronic von Frey” value (ZFD rats; ZFD rats, 3 mg/kg s.c., 0 hr) was 33.72, the “Electronic von Frey” value (ZFD rats; ZFD rats, 3 mg/kg s.c., 1 hr) was 54.21 and the “Electronic von Frey” value (ZFD rats; ZFD rats, 3 mg/kg s.c., 2 hr) was 58.41. For the same compound, the “Electronic von Frey” value (ZFD rats; ZFD rats, 3 mg/kg s.c., 4 hr) was 30.01, the “Electronic von Frey” value (ZFD rats; ZFD rats, 10 mg/kg s.c., 0 hr) was 22.69 and the “Electronic von Frey” value (ZFD rats; ZFD rats, 10 mg/kg s.c., 1 hr) was 56.02. For the same compound, the “Electronic von Frey” value (ZFD rats; ZFD rats, 10 mg/kg s.c., 2 hr) was 58.15 and the “Electronic von Frey” value (ZFD rats; ZFD rats, 10 mg/kg s.c., 4 hr) was 39.32.

Source: patent US20220184072A1 (priority 2019, published 2022)
